This note sets out measurements from patent US9499493B2, “2,4-pyrimidinediamine compounds and their uses” (Rigel Pharmaceuticals, Inc., priority 2002, dated 2016).

In assay [1] the test system is cultured human mast cells (CHMC). The assay is described as follows: CHMC low cell density IgE activation: tryptase assay. Type of assay: cell-based. Conditions: anti-IgE. In outline: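 Low-density CHMC assay: donor-adjusted 1000-1500 cells/well, MT buffer, 1 hr 37° C preincubation; anti-IgE stimulus 30 min 37° C versus MT-only controls; supernatant tryptase by substrate, 30 min RT.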

Assay [2] has the same test system. Nature of the assay: CHMC low cell density ionomycin activation: tryptase assay. Type of assay: cell-based.

As for `Cc1noc(COc2ccc(Nc3nc(Nc4cccc(O)c4)ncc3F)cc2)n1` [R935147, 5-Fluoro-N2-(3-hydroxyphenyl)-N4-[4-(3-methyl-1,2,4-oxadiazol-5-yl)methyleneoxyphenyl]-2,4-pyrimidinediamine], the IC50 (in general, the concentration at which inhibition is half-maximal) was 1400 nM in assay [1] and above 10000 nM in assay [2].

Turning to `CCOC(=O)C(C)(C)c1ccc(Nc2nc(Nc3ccc4c(c3)OCCO4)ncc2F)cc1` [R935148, N2-(3,4-Ethylenedioxyphenyl)-N4-[4-[(1-ethoxycarbonyl-1-methyl)ethyl]phenyl]-5-fluoro-2,4-pyrimidinediamine], the results for the IC50 in assay [1] and in assay [2] were 2220 nM and 9420 nM, respectively.

Turning to `CCOC(=O)C(C)(C)c1ccc(Nc2ncc(F)c(Nc3ccc(OC(C)C)cc3)n2)cc1` [R935150, N2-[4-[(1-Ethoxycarbonyl-1-methyl)ethyl]phenyl]-5-fluoro-N4-(4-isopropoxyphenyl)-2,4-pyrimidinediamine], the IC50 came to 1930 nM in assay [1] and 9740 nM in assay [2].

Turning to `CCOC(=O)C(C)(C)c1ccc(Nc2ncc(F)c(Nc3cccc(O)c3)n2)cc1` [R935152, N2-[4-[(1-Ethoxycarbonyl-1-methyl)ethyl]phenyl]-5-fluoro-N4-(3-hydroxyphenyl)-2,4-pyrimidinediamine], the IC50 came out at 505 nM in assay [1] and 9320 nM in assay [2].

`CCOC(=O)C(C)(C)c1ccc(Nc2nc(Nc3ccc(OCC(=O)OC)cc3)ncc2F)cc1` [R935157, N4-[4-[(1-Ethoxycarbonyl-1-methyl)ethyl]phenyl]-5-fluoro-N2-(4-methoxycarbonylmethyleneoxyphenyl)-2,4-pyrimidinediamine]: the IC50 in assay [1] worked out at 256 nM; in assay [2], 4660 nM.

In the case of `COC(=O)COc1ccc(Nc2ncc(F)c(Nc3ccc(OC(C)C)cc3)n2)cc1` [R935159, 5-Fluoro-N4-(4-isopropoxyphenyl)-N2-(4-methoxycarbonylmethyleneoxyphenyl)-2,4-pyrimidinediamine], the IC50 worked out at 232 nM in assay [1] and 4140 nM in assay [2].

Consider `Fc1cnc(Nc2ccc3c(c2)OCCCO3)nc1Nc1ccc2c(c1)OCCCO2` [R935162, N2,N4-Bis(3,4-propylenedioxyphenyl)-5-fluoro-2,4-pyrimidinediamine], for which the 50% inhibitory concentration (IC50) in assay [1] was 269 nM; in assay [2], above 10000 nM.

Consider `Fc1ccc(Nc2ccnc(Nc3ccc(F)c(Cl)c3)n2)cc1Cl` [R935163, N2,N4-Bis(3-chloro-4-fluoropheny)-2,4-pyrimidinediamine], for which the 50% inhibitory concentration (IC50) in assay [1] and in assay [2] was above 10000 nM throughout.

With `COC(=O)c1cc(Nc2ncc(F)c(Nc3ccc(OC(C)C)cc3)n2)cn1C` [R935164, 5-Fluoro-N4-(4-isopropoxyphenyl)-N2-[(N-methyl-2-methoxycarbonyl)pyrrol-4-yl]-2,4-pyrimidinediamine], the IC50 was 204 nM in assay [1] and above 10000 nM in assay [2].

Consider `COC(=O)c1cc(Nc2nc(Nc3ccc4c(c3)OCCO4)ncc2F)cn1C` [R935166, N2-(3,4-Ethylenedioxyphenyl)-5-fluoro-N4-[(N-methyl-2-methoxycarbonyl)pyrrol-4-yl]-2,4-pyrimidinediamine], for which the IC50 is 568 nM in assay [1] and above 10000 nM in assay [2].

For `CCOC(=O)C(C)(C)c1ccc(Nc2nc(Nc3ccc(OC(C)C)cc3)ncc2F)cc1` [R935167, N4-[4-[(1-Ethoxycarbonyl-1-methyl)ethyl]phenyl]-5-fluoro-N2-(4-isopropoxyphenyl)-2,4-pyrimidinediamine], the IC50 was 2130 nM in assay [1] and above 10000 nM in assay [2].

On to `CCOC(=O)C(C)(C)c1ccc(Nc2nc(Nc3cccc(O)c3)ncc2F)cc1` [R935169, N4-[4-[(1-Ethoxycarbonyl-1-methyl)ethyl]phenyl]-5-fluoro-N2-(3-hydroxyphenyl)-2,4-pyrimidinediamine], for which the IC50 in assay [1] turned out to be 999 nM; in assay [2], 8010 nM.

As to `CC(C)(CO)c1ccc(Nc2ncc(F)c(Nc3cccc(O)c3)n2)cc1` [R935171, 5-Fluoro-N2-[4-(2-hydroxy-1,1-dimethylethyl)phenyl]-N4-(3-hydroxyphenyl)-2,4-pyrimidinediamine], the half-inhibitory concentration (IC50) in assay [1] was 536 nM; in assay [2], above 10000 nM.

`CCOC(=O)C(C)(C)c1ccc(Nc2nc(Nc3ccc4c(c3)OCCO4)ncc2F)cc1` [R935172]: the IC50 in assay [1] is 1380 nM; in assay [2], 6810 nM.

Regarding `CC(C)(CO)c1ccc(Nc2nc(Nc3ccc4c(c3)OCCO4)ncc2F)cc1` [R935173, N2-(3,4-Ethylenedioxyphenyl)-5-fluoro-N4-[4-(2-hydroxy-1,1-dimethylethyl)phenyl]-2,4-pyrimidinediamine], the IC50 is 454 nM in assay [1] and above 10000 nM in assay [2].

Regarding `CC(C)(CO)c1ccc(Nc2ncc(F)c(Nc3ccc4oc(CO)cc4c3)n2)cc1` [R935177, 5-Fluoro-N2-[4-(2-hydroxy-1,1,dimethylethyl)phenyl]-N4-(2-hydroxymethylbenzofur-5-yl)-2,4-pyrimidinediamine], the concentration for half-maximal inhibition (IC50) is 889 nM in assay [1] and above 10000 nM in assay [2].

With `OCC(O)COc1ccc(Nc2ncc(F)c(Nc3ccc4c(c3)OCCO4)n2)cc1` (stereo not drawn) [R935179, N2-[4-(2,3-Dihydroxypropoxy)phenyl]-N4-(3,4-ethylenedioxypheny)-5-fluoro-2,4-pyrimidinediamine], the values for the half-inhibitory concentration (IC50) in assay [1] and in assay [2] were 557 nM and above 10000 nM, respectively.

Turning to `COC(=O)COc1ccc(Nc2ncc(F)c(Nc3ccc4c(c3)OCCCO4)n2)cc1` [R935182, 5-Fluoro-N2-[4-(methoxycarbonylmethyleneoxy)phenyl]-N4-(3,4-propylenedioxyphenyl)-2,4-pyrimidinediamine], the figures for the IC50 in assay [1] and in assay [2] were 124 nM and 2470 nM, respectively.

In the case of `OCCOc1ccc(Nc2ncc(F)c(Nc3ccc4c(c3)OCCCO4)n2)cc1` [R935183, 5-Fluoro-N2-[4-(2-hydroxyethoxy)phenyl]-N4-(3,4-propylenedioxyphenyl)-2,4-pyrimidinediamine], the half-maximal inhibitory concentration (IC50) is 729 nM in assay [1] and above 10000 nM in assay [2].

Consider `CNC(=O)COc1ccc(Nc2ncc(F)c(Nc3ccc4c(c3)OCCCO4)n2)cc1` [R935184, 5-Fluoro-N2-[4-(N-methylamino)carbonylmethyleneoxyphenyl]-N4-(3,4-propylenedioxyphenyl)-2,4-pyrimidinediamine], for which the 50% inhibitory concentration (IC50) in assay [1] was 605 nM; in assay [2], above 10000 nM.

In the case of `COC(=O)COc1cccc(Nc2ncc(F)c(Nc3ccc4c(c3)OCCCO4)n2)c1` [R935185, 5-Fluoro-N2-[3-(methoxycarbonylmethyleneoxy)phenyl]-N4-(3,4-propylenedioxyphenyl)-2,4-pyrimidinediamine], the half-inhibitory concentration (IC50) in assay [1] amounted to 351 nM; in assay [2] it was 6640 nM.

For `OCCOc1ccc(Nc2ncc(F)c(Nc3ccc4c(c3)OCCCO4)n2)cc1` [R935186, 5-Fluoro-N2-[4-(2-hydroxyethoxy)phenyl]-N4-(3,4-propylenedioxyphenyl)-2,4-pyrimidinediamine], the half-maximal inhibitory concentration (IC50) in assay [1] is 211 nM; in assay [2], above 10000 nM.

Take `CCOC(=O)C(C)(Oc1cccc(Nc2nc(Nc3ccc(OC(C)C)cc3)ncc2F)c1)C(=O)OCC` [R935187, N4-[3-(1-Bis(ethoxycarbonyl)ethoxy)phenyl]-5-fluoro-N2-[4-isopropoxyphenyl)-2,4-pyrimidinediamine]: the half-inhibitory concentration (IC50) is 9060 nM in assay [1] and above 10000 nM in assay [2].

As for `Fc1cnc(Nc2ccc3cn[nH]c3c2)nc1Nc1ccc2cn[nH]c2c1` [R935188, N2,N4-Bis(indazolin-6-yl)-5-fluoro-2,4-pyrimidinediamine], the IC50 was 239 nM in assay [1] and above 10000 nM in assay [2].

As for `Fc1cnc(Nc2ccc3[nH]ncc3c2)nc1Nc1ccc2[nH]ncc2c1` [R935189, N2,N4-Bis(indazolin-5-yl)-5-fluoro-2,4-pyrimidinediamine], the IC50 in assay [1] was 619 nM; in assay [2] it was above 10000 nM.

As to `Fc1cnc(Nc2ccc3cn[nH]c3c2)nc1Nc1ccc2c(c1)OCCO2` [R935190, N4-(3,4-Ethylenedioxyphenyl)-5-fluoro-N2-(indazolin-6-yl)-2,4-pyrimidinediamine], the IC50 was 156 nM in assay [1] and above 10000 nM in assay [2].

On to `Cn1ncc2cc(Nc3ncc(F)c(Nc4ccc5c(cnn5C)c4)n3)ccc21` [R935192, N2,N4-Bis(1-methyl-indazolin-5-yl)-5-fluoro-2,4-pyrimidinediamine], for which the 50% inhibitory concentration (IC50) in assay [1] is 337 nM; in assay [2], above 10000 nM.

Turning to `CC(C)Oc1ccc(Nc2nc(Nc3ccc4[nH]ncc4c3)ncc2F)cc1` [R935197, 5-Fluoro-N2-(indazoline-5-yl)-N4-(4-isopropoxyphenyl)-2,4-pyrimidinediamine], the half-inhibitory concentration (IC50) in assay [1] is 174 nM; in assay [2], above 10000 nM.

Take `Fc1cnc(Nc2ccc3[nH]ncc3c2)nc1Nc1ccc2c(c1)OCCO2` [R935198, N4-(3,4-Ethylenedioxyphenyl)-5-fluoro-N2-(indazoline-5-yl)-2,4-pyrimidinediamine]: the results for the 50% inhibitory concentration (IC50) in assay [1] and in assay [2] were 126 nM and above 10000 nM, respectively.

For `CNC(=O)COc1cccc(Nc2ncc(F)c(Nc3ccc4c(c3)OCCCO4)n2)c1` [R935202, 5-Fluoro-N2-[3-(N-methylamino)carbonylmethyleneoxyphenyl]-N4-(3,4-propylenedioxyphenyl)-2,4-pyrimidinediamine], the IC50 in assay [1] is 181 nM; in assay [2], 9760 nM.

As for `CC(C)Oc1ccc(Nc2ncc(F)c(Nc3ccc4c(cnn4C)c3)n2)cc1` [R935203, 5-Fluoro-N2-(4-isopropoxyphenyl)-N4-(1-methyl-indazoline-5-yl)-2,4-pyrimidinediamine], the IC50 is 562 nM in assay [1] and above 10000 nM in assay [2].

Regarding `Cn1ncc2cc(Nc3nc(Nc4cccc(O)c4)ncc3F)ccc21` [R935204, 5-Fluoro-N2-(3-hydroxyphenyl)-N4-(1-methyl-indazoline-5-yl)-2,4-pyrimidinediamine], the values for the IC50 in assay [1] and in assay [2] were 554 nM and above 10000 nM, respectively.

Take `COC(=O)Cn1ncc2ccc(Nc3ncc(F)c(Nc4ccc5cnn(CC(=O)OC)c5c4)n3)cc21` [R935205, N2,N4-Bis[1-(methoxycarbonyl)methyl-indazoline-6-yl]-5-fluoro-2,4-pyrimidinediamine]: the IC50 in assay [1] was 2960 nM; in assay [2], above 10000 nM.
